Test results: publication PMC8169668, “Discovery of a cooperative mode of inhibiting RIPK1 kinase” (Cell Discovery, 2021)

Tests used:
Type in all cases: cell-based
[1] = target: T1, RIPK1 (Homo sapiens, UniProt Q13546, S161A); test: CETSA; p-S166 autophosphorylation blot
T1 construct: HA-tagged hRIPK1 S161A reconstituted in RIPK1-deficient Jurkat cells
T1 sequence (Q13546 1-671 S161A): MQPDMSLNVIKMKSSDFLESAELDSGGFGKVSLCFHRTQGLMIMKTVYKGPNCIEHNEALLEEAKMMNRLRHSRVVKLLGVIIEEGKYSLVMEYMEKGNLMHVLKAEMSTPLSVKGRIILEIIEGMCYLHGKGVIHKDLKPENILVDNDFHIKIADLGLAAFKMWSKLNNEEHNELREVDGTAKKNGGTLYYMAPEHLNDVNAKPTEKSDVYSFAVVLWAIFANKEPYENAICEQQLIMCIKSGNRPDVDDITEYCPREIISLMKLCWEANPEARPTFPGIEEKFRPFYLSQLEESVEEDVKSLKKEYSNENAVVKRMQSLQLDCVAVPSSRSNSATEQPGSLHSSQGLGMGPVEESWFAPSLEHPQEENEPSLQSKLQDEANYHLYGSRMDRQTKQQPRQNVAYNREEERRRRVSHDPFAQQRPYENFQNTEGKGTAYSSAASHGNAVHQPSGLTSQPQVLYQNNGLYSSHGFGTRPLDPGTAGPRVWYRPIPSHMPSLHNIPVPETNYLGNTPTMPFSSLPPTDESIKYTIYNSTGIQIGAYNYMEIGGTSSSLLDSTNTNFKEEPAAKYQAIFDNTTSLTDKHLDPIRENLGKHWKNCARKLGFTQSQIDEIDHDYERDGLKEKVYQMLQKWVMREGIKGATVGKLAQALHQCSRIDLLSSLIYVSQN

[2] = target: T2, RIPK1 (Mus musculus, UniProt Q60855); test: CETSA in MEFs; p-S166 blot of mRIPK1-FKBP in L929 cells
T2 construct: endogenous RIPK1 (MEFs)
T2 sequence (Q60855 1-656): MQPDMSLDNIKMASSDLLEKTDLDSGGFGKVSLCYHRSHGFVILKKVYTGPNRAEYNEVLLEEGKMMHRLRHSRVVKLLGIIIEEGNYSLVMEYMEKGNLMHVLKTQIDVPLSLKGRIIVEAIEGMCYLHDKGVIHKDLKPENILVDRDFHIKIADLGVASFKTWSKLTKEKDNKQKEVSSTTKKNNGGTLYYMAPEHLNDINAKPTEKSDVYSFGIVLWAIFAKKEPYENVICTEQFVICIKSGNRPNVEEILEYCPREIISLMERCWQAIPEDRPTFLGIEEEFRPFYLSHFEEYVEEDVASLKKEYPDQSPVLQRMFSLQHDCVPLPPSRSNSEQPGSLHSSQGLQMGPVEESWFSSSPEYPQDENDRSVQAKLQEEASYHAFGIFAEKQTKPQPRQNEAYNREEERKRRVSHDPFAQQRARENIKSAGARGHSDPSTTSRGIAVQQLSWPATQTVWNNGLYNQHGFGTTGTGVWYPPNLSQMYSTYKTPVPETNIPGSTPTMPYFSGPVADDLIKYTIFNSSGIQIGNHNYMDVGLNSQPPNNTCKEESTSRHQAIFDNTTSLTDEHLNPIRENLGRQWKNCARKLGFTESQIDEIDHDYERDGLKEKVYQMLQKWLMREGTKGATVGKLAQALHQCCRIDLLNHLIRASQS

[3] = target: T3, RIPK1 (Homo sapiens, UniProt Q13546, L159V/D180S); test: p-S166 autophosphorylation blot, dose response
T3 construct: residues 1–330, Flag-tagged, in 293T cells
T3 sequence (Q13546 1-330 L159V/D180S): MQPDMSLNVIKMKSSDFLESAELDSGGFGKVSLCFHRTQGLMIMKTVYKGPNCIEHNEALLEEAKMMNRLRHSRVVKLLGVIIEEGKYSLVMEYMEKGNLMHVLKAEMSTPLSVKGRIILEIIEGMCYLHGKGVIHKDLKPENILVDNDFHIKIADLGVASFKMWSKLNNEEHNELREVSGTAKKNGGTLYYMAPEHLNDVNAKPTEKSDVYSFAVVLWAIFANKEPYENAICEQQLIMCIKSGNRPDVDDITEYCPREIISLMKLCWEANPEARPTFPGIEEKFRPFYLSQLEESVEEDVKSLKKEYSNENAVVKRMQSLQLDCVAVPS

Compound: Cc1ccc(C2CC(=O)NC(SCC(=O)Nc3nccs3)=C2C#N)cc1 (stereo not drawn) [Nec-34]
- CETSA; p-S166 autophosphorylation blot [1]: Nec-34 stabilized reconstituted S161A mutant RIPK1 as well as WT-RIPK1 in the soluble fraction under elevated temperatures
- CETSA in MEFs; p-S166 blot of mRIPK1-FKBP in L929 cells [2]: Nec-34 is able to bind endogenous RIPK1 in situ to increase its thermo-resistance
- p-S166 autophosphorylation blot, dose response [3]: Nec-34 was more potent in inhibiting L159V/D180S hRIPK1 than WT-hRIPK1
